pIC50, pKd: −log10 of the molar value. Values joined by “and” are separate entries in the source; they are usually repeats but may differ in a detail not shown here. Equal values may be shown once.
Experiments:
THP1-Dual = assay: Cytotoxicity against human THP1-Dual cells incubated for 24 hrs by CCK-8 method
Cyclic GMP-AMP synthase [1] = biological target: T1, Cyclic GMP-AMP synthase (Homo sapiens, UniProt Q8N884); assay: Inhibition of cGAS in human THP1-Dual cells preincubated for 1 hr followed by cGAMP addition and measured after 24 hrs by luminescence based QUANTI-Luc assay
in vivo [2] = conditions: rat, po, 3 mg/kg
Description: Tmax in rat at 3 mg/kg, po

in vivo [3] = conditions: rat, iv, 1 mg/kg
[4] = MRT last in rat at 1 mg/kg, iv; conditions: in vivo
Cyclic GMP-AMP synthase [5] = biological target: T2, Cyclic GMP-AMP synthase (Mus musculus, UniProt Q8C6L5); assay: Inhibition of cGAS in dsDNA activated mouse RAW-Lucia ISG cells preincubated for 1 hr followed by cGAMP addition and measured after 24 hrs by luminescence based QUANTI-Luc assay
[6] = Half life in rat at 1 mg/kg, iv; conditions: in vivo
in vivo [7] = conditions: rat, iv, 1 mg/kg; remark: listed apart in the source
[8] = Half life in rat at 3 mg/kg, po; conditions: in vivo
in vivo [9] = conditions: rat, po, 3 mg/kg; remark: listed apart in the source
Description: Cmax in rat at 3 mg/kg, po

[10] = MRT last in rat at 3 mg/kg, po; conditions: in vivo
in vivo [11] = conditions: rat, po, 3 mg/kg; remark: listed apart in the source
Description: Oral bioavailability in rat at 3 mg/kg

Cyclic GMP-AMP synthase [12] = biological target: T2, Cyclic GMP-AMP synthase; assay: Inhibition of cGAS in mouse RAW-Lucia ISG cells preincubated for 1 hr followed by cGAMP addition and measured after 24 hrs by luminescence based QUANTI-Luc assay
in vivo [13] = conditions: rat, po, 3 mg/kg; remark: listed apart in the source
Description: AUC last in rat at 3 mg/kg, po

Cyclic GMP-AMP synthase [14] = biological target: T1, Cyclic GMP-AMP synthase; assay: Inhibition of cGAS in dsDNA activated human THP1-Dual cells preincubated for 1 hr followed by cGAMP addition and measured after 24 hrs by luminescence based QUANTI-Luc assay
[15] = Volume of distribution at steady state in rat at 1 mg/kg, iv; conditions: in vivo
Cyclic GMP-AMP synthase [16] = biological target: T2, Cyclic GMP-AMP synthase; assay: Inhibition of mouse cGas incubated for 120 mins
Cyclic GMP-AMP synthase [17] = biological target: T1, Cyclic GMP-AMP synthase; assay: Inhibition of human cGas incubated for 120 mins
[18] = Cytotoxicity against mouse RAW-Lucia ISG cells incubated for 24 hrs by CCK-8 method
Cyclic GMP-AMP synthase [19] = biological target: T1, Cyclic GMP-AMP synthase; assay: Inhibition of cGAS in dsDNA stimulated human THP-1 cells assessed as inhibition of IFNB1 mRNA level by qRT-PCR analysis
Cyclic GMP-AMP synthase [20] = biological target: T1, Cyclic GMP-AMP synthase; assay: Binding affinity to human cGAS assessed as dissociation constant measured upto 240 secs by surface plasmon resonance assay
Cyclic GMP-AMP synthase [21] = biological target: T1, Cyclic GMP-AMP synthase; assay: Inhibition of full length recombinant human cGAS expressed in Escherichia coli BL21 (DE3) incubated for 7 hrs by Kinase-glo max luminescent kinase assay
Cyclic GMP-AMP synthase [22] = biological target: T2, Cyclic GMP-AMP synthase

T2 sequence (Q8C6L5 whole entry): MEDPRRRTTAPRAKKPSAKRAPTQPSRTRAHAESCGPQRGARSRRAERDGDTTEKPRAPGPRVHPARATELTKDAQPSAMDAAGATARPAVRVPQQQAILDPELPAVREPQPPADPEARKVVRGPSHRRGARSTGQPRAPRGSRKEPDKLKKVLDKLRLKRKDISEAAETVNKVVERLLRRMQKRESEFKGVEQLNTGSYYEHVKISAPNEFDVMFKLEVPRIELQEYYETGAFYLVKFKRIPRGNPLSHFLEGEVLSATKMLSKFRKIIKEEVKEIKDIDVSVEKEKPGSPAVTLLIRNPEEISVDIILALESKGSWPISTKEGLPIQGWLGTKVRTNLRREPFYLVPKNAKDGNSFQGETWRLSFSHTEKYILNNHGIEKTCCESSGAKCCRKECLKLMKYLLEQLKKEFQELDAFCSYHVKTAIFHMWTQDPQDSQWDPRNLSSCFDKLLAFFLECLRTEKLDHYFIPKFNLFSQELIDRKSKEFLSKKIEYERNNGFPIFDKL
T1 sequence (Q8N884 whole entry): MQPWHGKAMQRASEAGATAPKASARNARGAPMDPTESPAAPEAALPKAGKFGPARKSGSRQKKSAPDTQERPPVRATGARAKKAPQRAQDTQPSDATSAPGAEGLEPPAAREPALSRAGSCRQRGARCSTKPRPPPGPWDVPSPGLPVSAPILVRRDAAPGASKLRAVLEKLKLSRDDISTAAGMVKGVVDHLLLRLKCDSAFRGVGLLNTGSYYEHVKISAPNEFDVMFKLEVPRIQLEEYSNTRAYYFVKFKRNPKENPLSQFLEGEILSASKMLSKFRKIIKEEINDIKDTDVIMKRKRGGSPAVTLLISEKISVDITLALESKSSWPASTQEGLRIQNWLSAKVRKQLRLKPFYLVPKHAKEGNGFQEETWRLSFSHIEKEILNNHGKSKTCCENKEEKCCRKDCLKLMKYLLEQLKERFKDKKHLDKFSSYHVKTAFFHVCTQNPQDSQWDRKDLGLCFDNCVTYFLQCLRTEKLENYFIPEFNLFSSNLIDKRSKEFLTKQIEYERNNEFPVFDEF

SMILES | CC50 (THP1-Dual) | pIC50 (Cyclic GMP-AMP synthase [1]) | other results
O=C(CO)N1CCC2(CCc3[nH]c4c(Cl)c(Cl)cc(-c5ccnc(F)c5)c4c3C2)C1 (stereo not given) | 13.6 µM | 5.20 | 
O=C(CO)N1CCC2(CCc3[nH]c4c(Cl)c(Cl)cc(-c5ccnc(C(F)F)c5)c4c3C2)C1 (stereo not given) | 10.6 µM | 5.19 | 
C[C@H](N)C(=O)N1CCC2(CCc3[nH]c4c(Cl)c(Cl)cc(-c5ccnc(C(F)(F)F)c5)c4c3C2)C1 (stereo not given in full) | 16.4 µM | 5.37 | 
O=C(CO)N1CCC2(CCc3[nH]c4c(Cl)c(Cl)cc(-c5ccnc(C(F)(F)F)c5)c4c3C2)C1 (stereo not given) | 34 µM | 5.35 | Tmax (in vivo [2]): 0.667 h; AUC(0-t) (in vivo [3]): 1070 ng·h/mL; MRT last [4]: 3.59 h; pIC50 (Cyclic GMP-AMP synthase [5]): 4.94; half-life [6]: 3.36 h; clearance (in vivo [7]): 15.5 mL/min/kg; half-life [8]: 1.82 h; Cmax (in vivo [9]): 223 ng/mL; MRT last [10]: 2.99 h; bioavailability (in vivo [11]): 30%; pIC50 (Cyclic GMP-AMP synthase [12]): 4.94; AUC(0-t) (in vivo [13]): 920 ng·h/mL; pIC50 (Cyclic GMP-AMP synthase [14]): 5.35; Vd [15]: 4.48 L/kg
CC(C)=C(C#N)C(=O)N1CCC2(CCc3[nH]c4c(Cl)c(Cl)cc(-c5ccnc(C(F)(F)F)c5)c4c3C2)C1 (stereo not given) | 45.1 µM | 5.07 | 
CS(=O)(=O)CC(=O)N1CCC2(CCc3[nH]c4c(Cl)c(Cl)cc(-c5ccnc(C(F)(F)F)c5)c4c3C2)C1 (stereo not given) | 10.4 µM | 5.02 | 
N#Cc1cc(-c2cc(Cl)c(Cl)c3[nH]c4c(c23)CC2(CC4)CCN(C(=O)CO)C2)ccn1 (stereo not given) | 10.3 µM | 5.20 | 
N#Cc1ncc(-c2cc(Cl)c(Cl)c3[nH]c4c(c23)CC2(CC4)CCN(C(=O)CO)C2)cc1F (stereo not given) | 33.1 µM | 5.11 | 
O=C(CO)N1CCC2(CCc3[nH]c4c(Cl)c(Cl)cc(-c5cnn(C6CCNCC6)c5)c4c3C2)C1 (stereo not given) | > 50 µM | 4.89 | 
Cn1ccc(-c2cc(Cl)c(Cl)c3[nH]c4c(c23)CC2(CC4)CN(C(=O)CO)C2)n1 | 17.7 µM | 4.44 | 
Cc1nn(-c2cc3ccc(Cl)c(Cl)c3[nH]2)c(O)c1C1OC(=O)c2ccccc21 (stereo not given) |  |  | pIC50 (Cyclic GMP-AMP synthase [16]): 5.53; pIC50 (Cyclic GMP-AMP synthase [17]): 6.96
Cn1nc(C(F)(F)F)cc1-c1cc(Cl)c(Cl)c2[nH]c3c(c12)CC1(CC3)CCN(C(=O)CO)C1 (stereo not given) | 17.3 µM | 5.24 | 
Nc1cc(-c2cc(Cl)c(Cl)c3[nH]c4c(c23)CC2(CC4)CCN(C(=O)CO)C2)ccn1 (stereo not given) | > 50 µM | 5.19 | pIC50 (Cyclic GMP-AMP synthase [5]): 5.33; pIC50 (Cyclic GMP-AMP synthase [12]): 5.33; pIC50 (Cyclic GMP-AMP synthase [14]): 5.19
C[C@H](O)[C@@H](N)C(=O)N1CCC2(CCc3[nH]c4c(Cl)c(Cl)cc(-c5ccnc(C(F)(F)F)c5)c4c3C2)C1 (stereo not given in full) | 30.3 µM | 4.96 | 
Nc1ccc(-c2cc(Cl)c(Cl)c3[nH]c4c(c23)CC2(CC4)CCN(C(=O)CO)C2)cn1 (stereo not given) | 47.8 µM | 5.09 | pIC50 (Cyclic GMP-AMP synthase [14]): 5.09
O=C(CO)N1CCC2(CCc3[nH]c4c(Cl)c(Cl)cc(-c5cnn(C(F)F)c5)c4c3C2)C1 (stereo not given) | 37.7 µM | 5.24 | pIC50 (Cyclic GMP-AMP synthase [5]): 5.06; pIC50 (Cyclic GMP-AMP synthase [12]): 5.06; pIC50 (Cyclic GMP-AMP synthase [14]): 5.24
O=C(CO)N1CCC2(CCc3[nH]c4c(Cl)c(Cl)cc(-c5ccc(C(F)(F)F)nc5)c4c3C2)C1 (stereo not given) | 31.7 µM | 5.06 | 
O=C(CO)N1CCC2(CCc3[nH]c4c(Cl)c(Cl)cc(-c5ccc(F)nc5F)c4c3C2)C1 (stereo not given) | 33.4 µM | 5.15 | 

SMILES | CC50 (THP1-Dual) | pIC50 (Cyclic GMP-AMP synthase [1]) | other results
O=C(CO)N1CCC2(CCc3[nH]c4c(Cl)c(Cl)cc(-c5ccnc(C(F)(F)F)n5)c4c3C2)C1 (stereo not given) | 14.4 µM | 5.37 | 
Cn1ccc(-c2cc(Cl)c(Cl)c3c2[C@@H]2CN(C(=O)CO)CC[C@@H]2N3)n1 | > 50 µM | < 4.30 | 
Cn1ccc(-c2cc(Cl)c(Cl)c3[nH]c4c(c23)CN(C(=O)CO)CC4)n1 |  | 5.32 | Tmax (in vivo [2]): 2.67 h; CC50 [18]: 51.8 µM; pIC50 (Cyclic GMP-AMP synthase [19]): 5.77; AUC(0-t) (in vivo [3]): 792 ng·h/mL; MRT last [4]: 1.5 h; pIC50 (Cyclic GMP-AMP synthase [5]): 4.83 and 4.84; half-life [6]: 1.03 h; clearance (in vivo [7]): 20.7 mL/min/kg; half-life [8]: 1.31 h; Cmax (in vivo [9]): 375 ng/mL; MRT last [10]: 3.56 h; bioavailability (in vivo [11]): 64.1%; pKd (Cyclic GMP-AMP synthase [20]): 7.28; pIC50 (Cyclic GMP-AMP synthase [21]): 7.29; pIC50 (Cyclic GMP-AMP synthase [12]): 4.84 and < 5.00; AUC(0-t) (in vivo [13]): 1520 ng·h/mL; Vd [15]: 1.88 L/kg
O=C(CO)N1CCC2(CCc3[nH]c4c(Cl)c(Cl)cc(-c5ccnc(OC(F)F)c5)c4c3C2)C1 (stereo not given) | 13.2 µM | 5.19 | 
Cn1ccc(-c2cc(Cl)c(Cl)c3[nH]c4c(c23)CC2(CCN(C(=O)CO)CC2)C4)n1 | > 50 µM | 4.43 | 
Cn1ncc(-c2cc(Cl)c(Cl)c3[nH]c4c(c23)CC2(CC4)CCN(C(=O)CO)C2)n1 (stereo not given) | 26.3 µM | 4.98 | 
Cn1ccc(-c2cc(Cl)c(Cl)c3[nH]c4c(c23)CC2(CC4)CCN(C(=O)CO)C2)n1 (stereo not given) | > 50 µM | 5.12 | pIC50 (Cyclic GMP-AMP synthase [5]): 5.05; pIC50 (Cyclic GMP-AMP synthase [12]): 5.05; pIC50 (Cyclic GMP-AMP synthase [14]): 5.12
O=C(CO)N1CCC2(CCc3[nH]c4c(Cl)c(Cl)cc(-c5cnc(C(F)(F)F)nc5)c4c3C2)C1 (stereo not given) | 34 µM | 5.12 | pIC50 (Cyclic GMP-AMP synthase [14]): 5.12
C[C@@H](O)C(=O)N1CCC2(CCc3[nH]c4c(Cl)c(Cl)cc(-c5ccnc(C(F)(F)F)c5)c4c3C2)C1 (stereo not given in full) | 39.1 µM | 4.75 | 
O=C(CO)N1CCC2(CCc3[nH]c4c(Cl)c(Cl)cc(-c5cn[nH]c5)c4c3C2)C1 (stereo not given) | 13.7 µM | 5.23 | 
C[C@@H](N)C(=O)N1CCC2(CCc3[nH]c4c(Cl)c(Cl)cc(-c5ccnc(C(F)(F)F)c5)c4c3C2)C1 (stereo not given in full) | 7.08 µM | 5.16 | 
Cn1cc(-c2cc(Cl)c(Cl)c3[nH]c4c(c23)CC2(CC4)CCN(C(=O)CO)C2)cn1 (stereo not given) | > 50 µM | 4.61 | 
NCC(=O)N1CCC2(CCc3[nH]c4c(Cl)c(Cl)cc(-c5ccnc(C(F)(F)F)c5)c4c3C2)C1 (stereo not given) | 11.1 µM | 5.47 | 
C[C@H](O)C(=O)N1CCC2(CCc3[nH]c4c(Cl)c(Cl)cc(-c5ccnc(C(F)(F)F)c5)c4c3C2)C1 (stereo not given in full) | 12.7 µM | 4.41 | 
Cn1ccc(-c2cc(Cl)c(Cl)c3[nH]c4c(c23)CC(NC(=O)CO)CC4)n1 (stereo not given) | > 50 µM | < 4.30 | 
C#CC(=O)N1CCn2cccc2C1c1ccccc1 (stereo not given) |  |  | pIC50 (Cyclic GMP-AMP synthase [22]): 6.01
Cn1ccc(-c2cc(Cl)c(Cl)c3[nH]c4c(c23)CC2(CC4)CCN(C(=O)CO)CC2)n1 | > 50 µM | 4.89 | 

From ChEMBL document CHEMBL5543150, “Design, Synthesis, and Pharmacological Evaluation of Spiro[carbazole-3,3'-pyrrolidine] Derivatives as cGAS Inhibitors for Treatment of Acute Lung Injury” (J Med Chem, 2024)
